Test results published in article PMC5392334, “Discovery and characterization of a novel irreversible EGFR mutants selective and potent kinase inhibitor CHMFL-EGFR-26 with a distinct binding mode” (Oncotarget, 2017).
Several values for one entry are separate records, joined by “and”; a condition that tells them apart may be missing. Equal values may be shown once.

Columns and labels:
MINK = molecular target: T1, MINK (Homo sapiens, UniProt Q8N4C8); assay: KinomeScan; assay type: binding; conditions: read-out: % control
T1 construct: purchased DiscoveRx KINOMEscan

PIK3CA(C420R) = molecular target: T2, PIK3CA(C420R) (Homo sapiens, UniProt P42336, C420R); assay: KinomeScan; assay type: binding; conditions: read-out: % control
T2 construct: purchased DiscoveRx KINOMEscan

JNK1 = molecular target: T3, JNK1 (Homo sapiens, UniProt P45983); assay: KinomeScan; assay type: binding; conditions: read-out: % control
T3 construct: purchased DiscoveRx KINOMEscan

[1] = molecular target: T4, ABL1(H396P)-phosphorylated (Homo sapiens, UniProt P00519, H396P); assay: KinomeScan; assay type: binding; conditions: read-out: % control
T4 construct: purchased DiscoveRx KINOMEscan

AKT2 = molecular target: T5, AKT2 (Homo sapiens, UniProt P31751); assay: KinomeScan; assay type: binding; conditions: read-out: % control
T5 construct: purchased DiscoveRx KINOMEscan

FLT3(ITD,D835V) = assay: KinomeScan; assay type: binding; conditions: 1μM
CSF1R-autoinhibited = molecular target: T6, CSF1R-autoinhibited (Homo sapiens, UniProt P07333); assay: KinomeScan; assay type: binding; conditions: read-out: % control
T6 construct: purchased DiscoveRx KINOMEscan

TXK = molecular target: T7, TXK (Homo sapiens, UniProt P42681); assay: KinomeScan; assay type: binding; conditions: read-out: % control
T7 construct: purchased DiscoveRx KINOMEscan

PYK2 = molecular target: T8, PYK2 (Homo sapiens, UniProt Q14289); assay: KinomeScan; assay type: binding; conditions: read-out: % control
T8 construct: purchased DiscoveRx KINOMEscan

KIT = molecular target: T9, KIT (Homo sapiens, UniProt P10721); assay: KinomeScan; assay type: binding; conditions: read-out: % control
T9 construct: purchased DiscoveRx KINOMEscan

PIK3CA(E545K) = molecular target: T10, PIK3CA(E545K) (Homo sapiens, UniProt P42336, E545K); assay: KinomeScan; assay type: binding; conditions: read-out: % control
T10 construct: purchased DiscoveRx KINOMEscan

CAMK2A = molecular target: T11, CAMK2A (Homo sapiens, UniProt Q9UQM7); assay: KinomeScan; assay type: binding; conditions: read-out: % control
T11 construct: purchased DiscoveRx KINOMEscan

WNK4 = molecular target: T12, WNK4 (Homo sapiens, UniProt Q96J92); assay: KinomeScan; assay type: binding; conditions: read-out: % control
T12 construct: purchased DiscoveRx KINOMEscan

SIK = molecular target: T13, SIK (Homo sapiens, UniProt P57059); assay: KinomeScan; assay type: binding; conditions: read-out: % control
T13 construct: purchased DiscoveRx KINOMEscan

VPS34 = molecular target: T14, VPS34 (Homo sapiens, UniProt Q8NEB9); assay: KinomeScan; assay type: binding; conditions: read-out: % control
T14 construct: purchased DiscoveRx KINOMEscan

DAPK2 = molecular target: T15, DAPK2 (Homo sapiens, UniProt Q9UIK4); assay: KinomeScan; assay type: binding; conditions: read-out: % control
T15 construct: purchased DiscoveRx KINOMEscan

EGFR(ErbB1) = EGFR(ErbB1) (Homo sapiens, UniProt P00533); assay: SelectScreen biochemical assay
Text: The enzymatic inhibition result of CHMFL-EGFR-26 was detected by SelectScreen techonology (Life Technologies).

ALK(C1156Y) = molecular target: T16, ALK(C1156Y) (Homo sapiens, UniProt Q9UM73, C1156Y); assay: KinomeScan; assay type: binding; conditions: read-out: % control
T16 construct: purchased DiscoveRx KINOMEscan

BRSK1 = molecular target: T17, BRSK1 (Homo sapiens, UniProt Q8TDC3); assay: KinomeScan; assay type: binding; conditions: read-out: % control
T17 construct: purchased DiscoveRx KINOMEscan

EPHA8 = molecular target: T18, EPHA8 (Homo sapiens, UniProt P29322); assay: KinomeScan; assay type: binding; conditions: read-out: % control
T18 construct: purchased DiscoveRx KINOMEscan

NDR2 = molecular target: T19, NDR2 (Homo sapiens, UniProt Q9Y2H1); assay: KinomeScan; assay type: binding; conditions: read-out: % control
T19 construct: purchased DiscoveRx KINOMEscan

CHEK1 = molecular target: T20, CHEK1 (Homo sapiens, UniProt O14757); assay: KinomeScan; assay type: binding; conditions: read-out: % control
T20 construct: purchased DiscoveRx KINOMEscan

[2] = tested on: EGFR Y1068 phosphorylation in BaF3-TEL-EGFR cells; assay: EGFR Y1068 auto-phosphorylation in transformed BaF3 cells; conditions: Mus musculus, BaF3, 4 h, read-out: EC50, phosphorylation of EGFR Y1068
IRAK4 = molecular target: T21, IRAK4 (Homo sapiens, UniProt Q9NWZ3); assay: KinomeScan; assay type: binding; conditions: read-out: % control
T21 construct: purchased DiscoveRx KINOMEscan

ACVR2A = molecular target: T22, ACVR2A (Homo sapiens, UniProt P27037); assay: KinomeScan; assay type: binding; conditions: read-out: % control
T22 construct: purchased DiscoveRx KINOMEscan

MAP3K4 = molecular target: T23, MAP3K4 (Homo sapiens, UniProt Q9Y6R4); assay: KinomeScan; assay type: binding; conditions: read-out: % control
T23 construct: purchased DiscoveRx KINOMEscan

TLK2 = molecular target: T24, TLK2 (Homo sapiens, UniProt Q86UE8); assay: KinomeScan; assay type: binding; conditions: read-out: % control
T24 construct: purchased DiscoveRx KINOMEscan

EGFR(T790M) = molecular target: T25, EGFR(T790M) (Homo sapiens, UniProt P00533, T790M); assay: KinomeScan; assay type: binding; conditions: read-out: % control
T25 construct: purchased DiscoveRx KINOMEscan

EGFR(G719S) = molecular target: T26, EGFR(G719S) (Homo sapiens, UniProt P00533, G719S); assay: KinomeScan; assay type: binding; conditions: read-out: % control
T26 construct: purchased DiscoveRx KINOMEscan

ROS1 = molecular target: T27, ROS1 (Homo sapiens, UniProt P08922); assay: KinomeScan; assay type: binding; conditions: read-out: % control
T27 construct: purchased DiscoveRx KINOMEscan

ADCK4 = molecular target: T28, ADCK4 (Homo sapiens, UniProt Q96D53); assay: KinomeScan; assay type: binding; conditions: read-out: % control
T28 construct: purchased DiscoveRx KINOMEscan

TBK1 = molecular target: T29, TBK1 (Homo sapiens, UniProt Q9UHD2); assay: KinomeScan; assay type: binding; conditions: read-out: % control
T29 construct: purchased DiscoveRx KINOMEscan

GRK1 = molecular target: T30, GRK1 (Homo sapiens, UniProt Q15835); assay: KinomeScan; assay type: binding; conditions: read-out: % control
T30 construct: purchased DiscoveRx KINOMEscan

HIPK1 = molecular target: T31, HIPK1 (Homo sapiens, UniProt Q86Z02); assay: KinomeScan; assay type: binding; conditions: read-out: % control
T31 construct: purchased DiscoveRx KINOMEscan

TRKC = molecular target: T32, TRKC (Homo sapiens, UniProt Q16288); assay: KinomeScan; assay type: binding; conditions: read-out: % control
T32 construct: purchased DiscoveRx KINOMEscan

MEK4 = molecular target: T33, MEK4 (Homo sapiens, UniProt P45985); assay: KinomeScan; assay type: binding; conditions: read-out: % control
T33 construct: purchased DiscoveRx KINOMEscan

FLT3(R834Q) = molecular target: T34, FLT3(R834Q) (Homo sapiens, UniProt P36888, R834Q); assay: KinomeScan; assay type: binding; conditions: read-out: % control
T34 construct: purchased DiscoveRx KINOMEscan

[3] = molecular target: T35, EGFR(L747-E749del, A750P) (Homo sapiens, UniProt P00533, A750P/DEL747-749); assay: KinomeScan; assay type: binding; conditions: read-out: % control
T35 construct: purchased DiscoveRx KINOMEscan

BaF3-TEL-EGFR-T790M = assay: Anti-proliferation, BaF3 isogenic cell lines (CellTiter-Glo); assay type: cell-based; conditions: Mus musculus, 72 hours, triplet testing
CSK = molecular target: T36, CSK (Homo sapiens, UniProt P41240); assay: KinomeScan; assay type: binding; conditions: read-out: % control
T36 construct: purchased DiscoveRx KINOMEscan

EGFR(L861Q) = molecular target: T37, EGFR(L861Q) (Homo sapiens, UniProt P00533, L861Q); assay: KinomeScan; assay type: binding; conditions: read-out: % control
T37 construct: purchased DiscoveRx KINOMEscan

MRCKB = molecular target: T38, MRCKB (Homo sapiens, UniProt Q9Y5S2); assay: KinomeScan; assay type: binding; conditions: read-out: % control
T38 construct: purchased DiscoveRx KINOMEscan

Chain of EGFR(ErbB1) (P00533 25-1210): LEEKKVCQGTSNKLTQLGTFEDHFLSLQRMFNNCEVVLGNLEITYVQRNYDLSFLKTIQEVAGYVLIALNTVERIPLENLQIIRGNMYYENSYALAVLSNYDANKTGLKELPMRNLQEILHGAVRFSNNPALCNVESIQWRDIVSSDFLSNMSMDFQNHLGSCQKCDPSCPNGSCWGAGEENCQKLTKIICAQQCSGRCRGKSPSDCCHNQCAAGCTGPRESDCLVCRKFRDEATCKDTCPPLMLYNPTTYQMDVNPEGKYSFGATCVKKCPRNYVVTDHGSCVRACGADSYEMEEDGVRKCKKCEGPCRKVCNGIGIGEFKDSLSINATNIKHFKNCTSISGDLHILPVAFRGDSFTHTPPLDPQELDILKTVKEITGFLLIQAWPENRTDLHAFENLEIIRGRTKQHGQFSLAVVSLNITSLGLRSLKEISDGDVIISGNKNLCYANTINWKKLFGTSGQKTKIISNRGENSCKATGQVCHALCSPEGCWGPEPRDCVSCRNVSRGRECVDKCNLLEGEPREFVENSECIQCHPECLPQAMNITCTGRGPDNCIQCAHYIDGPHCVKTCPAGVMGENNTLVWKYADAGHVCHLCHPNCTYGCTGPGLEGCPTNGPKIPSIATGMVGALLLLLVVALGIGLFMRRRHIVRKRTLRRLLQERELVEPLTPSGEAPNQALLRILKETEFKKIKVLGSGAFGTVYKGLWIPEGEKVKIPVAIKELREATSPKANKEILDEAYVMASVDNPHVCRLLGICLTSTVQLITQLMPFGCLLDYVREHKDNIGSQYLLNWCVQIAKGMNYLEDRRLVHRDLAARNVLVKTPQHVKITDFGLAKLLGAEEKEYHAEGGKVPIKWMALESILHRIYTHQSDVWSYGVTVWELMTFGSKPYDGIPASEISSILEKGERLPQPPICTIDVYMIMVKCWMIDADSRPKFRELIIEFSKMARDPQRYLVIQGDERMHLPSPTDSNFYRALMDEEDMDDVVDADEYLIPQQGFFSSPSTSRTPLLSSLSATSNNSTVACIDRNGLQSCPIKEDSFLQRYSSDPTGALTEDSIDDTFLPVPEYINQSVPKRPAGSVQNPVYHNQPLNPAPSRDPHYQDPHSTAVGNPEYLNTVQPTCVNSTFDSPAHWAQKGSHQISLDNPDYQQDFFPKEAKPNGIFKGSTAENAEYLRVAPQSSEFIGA
T2 sequence (P42336 whole entry C420R): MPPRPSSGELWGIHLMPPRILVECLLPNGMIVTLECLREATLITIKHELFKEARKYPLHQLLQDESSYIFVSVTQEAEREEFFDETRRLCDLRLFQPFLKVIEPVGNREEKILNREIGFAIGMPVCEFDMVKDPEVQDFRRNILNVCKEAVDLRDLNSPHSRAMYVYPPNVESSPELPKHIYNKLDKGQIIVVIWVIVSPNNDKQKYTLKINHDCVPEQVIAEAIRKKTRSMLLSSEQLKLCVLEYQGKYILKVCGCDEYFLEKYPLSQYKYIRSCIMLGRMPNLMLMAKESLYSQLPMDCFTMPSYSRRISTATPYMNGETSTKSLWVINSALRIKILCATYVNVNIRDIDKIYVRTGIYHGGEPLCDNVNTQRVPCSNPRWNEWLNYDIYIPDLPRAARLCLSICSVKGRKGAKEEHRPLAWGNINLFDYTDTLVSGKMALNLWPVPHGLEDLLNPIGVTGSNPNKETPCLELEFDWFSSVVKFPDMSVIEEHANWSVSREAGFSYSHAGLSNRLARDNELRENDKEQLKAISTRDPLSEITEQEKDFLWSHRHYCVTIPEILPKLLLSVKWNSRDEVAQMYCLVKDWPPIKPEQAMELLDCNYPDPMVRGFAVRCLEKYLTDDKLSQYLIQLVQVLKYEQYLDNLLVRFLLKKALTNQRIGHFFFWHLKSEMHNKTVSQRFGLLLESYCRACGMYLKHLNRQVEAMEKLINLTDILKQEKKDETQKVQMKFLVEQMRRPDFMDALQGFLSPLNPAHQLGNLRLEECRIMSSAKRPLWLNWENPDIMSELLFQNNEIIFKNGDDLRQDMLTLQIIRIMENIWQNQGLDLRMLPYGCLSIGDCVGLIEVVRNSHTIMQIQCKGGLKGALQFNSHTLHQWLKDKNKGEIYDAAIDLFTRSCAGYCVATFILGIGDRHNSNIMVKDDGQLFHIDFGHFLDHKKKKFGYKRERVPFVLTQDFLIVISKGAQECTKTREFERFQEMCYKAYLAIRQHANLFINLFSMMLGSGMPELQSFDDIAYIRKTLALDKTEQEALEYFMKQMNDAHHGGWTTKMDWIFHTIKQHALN
T16 sequence (Q9UM73 19-1620 C1156Y): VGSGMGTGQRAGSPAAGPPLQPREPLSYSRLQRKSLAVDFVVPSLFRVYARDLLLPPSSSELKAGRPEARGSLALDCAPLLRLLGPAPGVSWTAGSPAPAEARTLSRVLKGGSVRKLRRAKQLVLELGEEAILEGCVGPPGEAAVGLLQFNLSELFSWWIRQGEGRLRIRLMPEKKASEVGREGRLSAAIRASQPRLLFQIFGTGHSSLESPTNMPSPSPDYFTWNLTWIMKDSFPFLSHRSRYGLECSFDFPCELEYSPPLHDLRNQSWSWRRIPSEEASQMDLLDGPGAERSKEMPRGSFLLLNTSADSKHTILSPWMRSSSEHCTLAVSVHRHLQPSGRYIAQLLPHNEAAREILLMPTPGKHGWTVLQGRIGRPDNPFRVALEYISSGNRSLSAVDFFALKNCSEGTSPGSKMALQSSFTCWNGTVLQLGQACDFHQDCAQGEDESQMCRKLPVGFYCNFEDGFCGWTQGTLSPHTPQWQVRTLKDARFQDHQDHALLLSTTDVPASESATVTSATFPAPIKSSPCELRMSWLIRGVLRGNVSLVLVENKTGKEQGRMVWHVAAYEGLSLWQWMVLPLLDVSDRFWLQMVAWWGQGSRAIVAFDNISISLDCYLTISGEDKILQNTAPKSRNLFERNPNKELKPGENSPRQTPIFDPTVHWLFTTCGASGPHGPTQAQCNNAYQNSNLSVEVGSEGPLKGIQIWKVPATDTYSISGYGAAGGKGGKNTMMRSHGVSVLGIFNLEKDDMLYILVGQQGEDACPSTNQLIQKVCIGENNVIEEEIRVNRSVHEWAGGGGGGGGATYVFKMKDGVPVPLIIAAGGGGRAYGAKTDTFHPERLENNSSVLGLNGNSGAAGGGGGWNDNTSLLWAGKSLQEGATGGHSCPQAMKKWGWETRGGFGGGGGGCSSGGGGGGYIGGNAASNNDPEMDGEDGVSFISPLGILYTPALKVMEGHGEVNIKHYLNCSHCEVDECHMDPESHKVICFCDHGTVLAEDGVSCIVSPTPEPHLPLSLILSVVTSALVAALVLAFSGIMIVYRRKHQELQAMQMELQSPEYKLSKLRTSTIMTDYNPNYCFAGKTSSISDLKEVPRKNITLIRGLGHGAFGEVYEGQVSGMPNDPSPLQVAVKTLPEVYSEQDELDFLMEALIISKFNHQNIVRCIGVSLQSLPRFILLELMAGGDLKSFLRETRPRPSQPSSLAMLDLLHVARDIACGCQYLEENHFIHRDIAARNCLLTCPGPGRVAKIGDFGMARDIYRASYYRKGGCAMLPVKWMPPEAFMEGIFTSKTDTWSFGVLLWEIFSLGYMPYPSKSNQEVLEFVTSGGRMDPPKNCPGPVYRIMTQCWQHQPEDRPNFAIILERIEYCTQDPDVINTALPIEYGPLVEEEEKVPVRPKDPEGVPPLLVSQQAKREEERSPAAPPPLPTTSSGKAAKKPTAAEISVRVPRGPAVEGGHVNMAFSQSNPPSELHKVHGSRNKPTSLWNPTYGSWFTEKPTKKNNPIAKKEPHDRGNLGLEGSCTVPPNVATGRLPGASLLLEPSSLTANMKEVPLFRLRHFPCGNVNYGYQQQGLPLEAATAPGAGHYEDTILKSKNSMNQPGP
T9 sequence (P10721 26-976): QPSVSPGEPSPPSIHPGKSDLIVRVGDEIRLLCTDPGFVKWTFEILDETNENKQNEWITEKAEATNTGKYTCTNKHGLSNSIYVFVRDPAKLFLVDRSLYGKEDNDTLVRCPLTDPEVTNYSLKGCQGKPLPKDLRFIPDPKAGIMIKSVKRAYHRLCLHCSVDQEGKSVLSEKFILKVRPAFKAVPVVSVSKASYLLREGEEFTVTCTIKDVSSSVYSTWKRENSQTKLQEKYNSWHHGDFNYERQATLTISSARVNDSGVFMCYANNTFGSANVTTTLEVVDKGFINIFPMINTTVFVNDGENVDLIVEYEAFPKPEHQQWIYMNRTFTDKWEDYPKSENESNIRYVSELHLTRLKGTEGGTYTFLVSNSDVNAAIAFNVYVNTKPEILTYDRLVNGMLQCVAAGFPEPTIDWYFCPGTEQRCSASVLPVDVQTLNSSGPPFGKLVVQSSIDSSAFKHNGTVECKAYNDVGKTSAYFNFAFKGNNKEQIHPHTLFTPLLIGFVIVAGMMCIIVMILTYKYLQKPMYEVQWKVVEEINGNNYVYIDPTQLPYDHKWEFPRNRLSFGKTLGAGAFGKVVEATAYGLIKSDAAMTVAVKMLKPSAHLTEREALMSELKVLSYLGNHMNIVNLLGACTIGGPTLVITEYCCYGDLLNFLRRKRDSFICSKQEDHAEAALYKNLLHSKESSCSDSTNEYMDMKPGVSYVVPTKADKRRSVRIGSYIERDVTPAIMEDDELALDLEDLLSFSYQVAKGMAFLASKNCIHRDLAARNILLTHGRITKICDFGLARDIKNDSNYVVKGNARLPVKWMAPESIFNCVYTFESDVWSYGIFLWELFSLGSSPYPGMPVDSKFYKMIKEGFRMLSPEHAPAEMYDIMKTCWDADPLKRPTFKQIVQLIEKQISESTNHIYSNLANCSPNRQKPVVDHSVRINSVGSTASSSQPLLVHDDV
T10 sequence (P42336 whole entry E545K): as the sequence (P42336 whole entry C420R) above, with R420C, E545K counted along it

## C=CC(=O)N1CCC[C@@H](n2nc(-c3ccc(OCc4cccc(C)n4)c(Cl)c3)c3c(N)ncnc32)C1 [CHMFL-EGFR-26]
MINK
  remaining binding at 1 µM: 29%
PIK3CA(C420R)
  remaining binding at 1 µM: 100%
JNK1
  remaining binding at 1 µM: 76%
[1]
  remaining binding at 1 µM: 100%
AKT2
  remaining binding at 1 µM: 86%
FLT3(ITD,D835V)
  % control: 99%
CSF1R-autoinhibited
  remaining binding at 1 µM: 100%
TXK
  remaining binding at 1 µM: 15%
PYK2
  remaining binding at 1 µM: 55%
KIT
  remaining binding at 1 µM: 100%
PIK3CA(E545K)
  remaining binding at 1 µM: 81%
CAMK2A
  remaining binding at 1 µM: 99%
WNK4
  remaining binding at 1 µM: 86%
SIK
  remaining binding at 1 µM: 69%
VPS34
  remaining binding at 1 µM: 89%
DAPK2
  remaining binding at 1 µM: 100%
EGFR(ErbB1)
  IC50: 71 nM and 71.4 nM
ALK(C1156Y)
  remaining binding at 1 µM: 100%
BRSK1
  remaining binding at 1 µM: 93%
EPHA8
  remaining binding at 1 µM: 89%
NDR2
  remaining binding at 1 µM: 100%
CHEK1
  remaining binding at 1 µM: 100%
[2]
  EC50: 50 nM
IRAK4
  remaining binding at 1 µM: 100%
ACVR2A
  remaining binding at 1 µM: 89%
MAP3K4
  remaining binding at 1 µM: 86%
TLK2
  remaining binding at 1 µM: 80%
EGFR(T790M)
  remaining binding at 1 µM: 0.25%
EGFR(G719S)
  remaining binding at 1 µM: 18%
ROS1
  remaining binding at 1 µM: 89%
ADCK4
  remaining binding at 1 µM: 100%
TBK1
  remaining binding at 1 µM: 100%
GRK1
  remaining binding at 1 µM: 88%
HIPK1
  remaining binding at 1 µM: 98%
TRKC
  remaining binding at 1 µM: 100%
MEK4
  remaining binding at 1 µM: 80%
FLT3(R834Q)
  remaining binding at 1 µM: 100%
[3]
  remaining binding at 1 µM: 10%
BaF3-TEL-EGFR-T790M
  GI50: < 0.3 nM
CSK
  remaining binding at 1 µM: 32%
EGFR(L861Q)
  remaining binding at 1 µM: 0.9%
MRCKB
  remaining binding at 1 µM: 80%
